Measured values from patent US5648333A, “Peptides having bradykinin antagonist action” (Hoechst Aktiengesellschaft, priority 1988, dated 1997).
Where a SMILES comes first, the peptide text is derived from it. [ ]: non-standard residue; d: D form. Oic = O=C(O)[C@@H]1C[C@@H]2CCCC[C@@H]2N1; Hyp = O=C(O)[C@@H]1C[C@@H](O)CN1; dTic = O=C(O)[C@H]1Cc2ccccc2CN1

Target: T1, isolated pulmonary artery of the guinea pig (Cavia porcellus, UniProt O70526)
T1 sequence (O70526 1-372): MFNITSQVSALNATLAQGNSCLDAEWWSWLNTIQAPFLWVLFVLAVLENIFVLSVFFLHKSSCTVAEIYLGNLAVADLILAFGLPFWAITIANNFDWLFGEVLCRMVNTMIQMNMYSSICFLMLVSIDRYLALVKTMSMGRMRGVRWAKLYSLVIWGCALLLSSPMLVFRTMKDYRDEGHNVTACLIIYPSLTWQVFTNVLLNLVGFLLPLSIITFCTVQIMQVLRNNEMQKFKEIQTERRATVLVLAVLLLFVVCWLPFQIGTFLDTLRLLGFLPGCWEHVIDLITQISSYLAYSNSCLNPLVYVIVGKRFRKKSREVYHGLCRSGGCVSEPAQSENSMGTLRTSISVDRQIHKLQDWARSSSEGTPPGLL
Assay: bradykinin antagonist action on the isolated arteria pulmonalis of the guinea pig (decrease of bradykinin-induced contraction)
Method: For testing the peptides according to the invention on the isolated arteria pulmonalis, guinea pigs (Dunkin Hartley) having a weight of 400-450 g are sacrificed by a blow to the back of the neck.
The thorax is opened and the arteria pulmonalis is carefully dissected out. The surrounding tissue is carefully removed and the arteria pulmonalis is cut spirally at an angle of 45°.
The vessel strip of 2.5 cm length and 3-4 mm width is fixed in a 10 ml capacity organ bath which is filled with Ringer solution.
95% O2 and 5% CO2 is bubbled through the solution, which is warmed to 37° C. The pH is 7.4 and the preload on the vessel strip is 1.0 g.
The isotonic contraction changes are detected using a lever arrangement and an HF modem (position sensor) from Hugo Sachs and recorded on a compensating recorder (BEC, Goerz Metrawatt SE 460).
After equilibration for 1 hour, the experiment is begun.
For the detection of a partial agonistic effect, the peptides are used in the doses 1×10^-5 -1×10^-3 mol/l.

[1] = Table 1, vessel strip contracted with 2×10^-7 mol/l of bradykinin, peptides act 10 minutes, calculated from dose-effect curves

N=C(N)NCCC[C@@H](N)C(=O)N[C@@H](CCCNC(=N)N)C(=O)N1CCC[C@H]1C(=O)N1C[C@H](O)C[C@H]1C(=O)NCC(=O)N[C@@H](Cc1cccs1)C(=O)N[C@@H](CO)C(=O)N1Cc2ccccc2C[C@@H]1C(=O)N1[C@H](C(=O)N[C@@H](CCCNC(=N)N)C(=O)O)C[C@@H]2CCCC[C@@H]21 [Example 59, H-(D)-Arg-Arg-Pro-Hyp-Gly-Thia-Ser-(D)-Tic-Oic-Arg-OH]
IC50 (table by Example No., test not named there, values coincide with Table 1): 5.4 nM

CC(C)C[C@H](NC(=O)CNC(=O)[C@@H]1C[C@@H](O)CN1C(=O)[C@@H]1CCCN1C(=O)[C@H](CCCNC(=N)N)NC(=O)[C@H](N)CCCNC(=N)N)C(=O)N[C@@H](CO)C(=O)N1Cc2ccccc2C[C@@H]1C(=O)N1[C@H](C(=O)N[C@@H](CCCNC(=N)N)C(=O)O)C[C@@H]2CCCC[C@@H]21 [Example 199, H-(D)-Arg-Arg-Pro-Hyp-Gly-Leu-Ser-(D)-Tic-Oic-Arg-OH] (H-[dR]RP[Hyp]GLS[dTic][Oic]R-OH)
IC50 [1]: 5.9 nM

N=C(N)NCCC[C@@H](N)C(=O)N[C@@H](CCCNC(=N)N)C(=O)N1CCC[C@H]1C(=O)N1C[C@H](O)C[C@H]1C(=O)NCC(=O)N[C@@H](CC1CCCCC1)C(=O)N[C@@H](CO)C(=O)N1Cc2ccccc2C[C@@H]1C(=O)N1[C@H](C(=O)N[C@@H](CCCNC(=N)N)C(=O)O)C[C@@H]2CCCC[C@@H]21 [Example 200, H-(D)-Arg-Arg-Pro-Hyp-Gly-Cha-Ser-(D)-Tic-Oic-Arg-OH]
IC50 [1]: 37 nM

CC(C)(C)[C@H](NC(=O)CNC(=O)[C@@H]1C[C@@H](O)CN1C(=O)[C@@H]1CCCN1C(=O)[C@H](CCCNC(=N)N)NC(=O)[C@H](N)CCCNC(=N)N)C(=O)N[C@@H](CO)C(=O)N1Cc2ccccc2C[C@@H]1C(=O)N1[C@H](C(=O)N[C@@H](CCCNC(=N)N)C(=O)O)C[C@@H]2CCCC[C@@H]21 [Example 201, H-(D)-Arg-Arg-Pro-Hyp-Gly-Tbg-Ser-(D)-Tic-Oic-Arg-OH]
IC50 [1]: 6000 nM
